Source: PMC9942557, “Bolaamphiphile Analogues of 12-bis-THA Cl2 Are Potent Antimicrobial Therapeutics with Distinct Mechanisms of Action against Bacterial, Mycobacterial, and Fungal Pathogens” (mSphere, 2022)
Where two headings read alike, the source gives them in different places.

How the values were obtained:
[1] = test system: EMR Staphylococcus aureus 16 NCTC 13277; assay: Broth microdilution MIC; type: cell-based
C. albicans 3281 = assay: Broth microdilution MIC; type: cell-based, Candida albicans; details: C. albicans 3281
Klebsiella pneumoniae M6 = assay: Broth microdilution MIC; type: cell-based
[2] = test system: VR Enterococcus faecalis NCTC 12201; assay: Broth microdilution MIC; type: cell-based
[3] = test system: Acinetobacter baumannii AYE; assay: Broth microdilution MIC; type: cell-based
[4] = test system: EMR Staphylococcus aureus 15 NCTC 13616; assay: Broth microdilution MIC; type: cell-based
[5] = test system: Pseudomonas aeruginosa PAO1; assay: Broth microdilution MIC; type: cell-based
C. parapsilosis = assay: Broth microdilution MIC; type: cell-based
HeLa = assay: In vitro toxicity for cell line; type: cell-based, human; details: for EC50: Homo sapiens, read-out: Toxicity (EC50)
Text: (§1) TABLE 2 Toxicity of bolaamphiphiles for two cell lines^a | column: Toxicity (EC50 [μg/ml]) of: / 12-bis-THA Cl2; Toxicity (EC50 [μg/ml]) of: / Dequalinium; Toxicity (EC50 [μg/ml]) of: / Quino-bola; Toxicity (EC50 [μg/ml]) of: / Penta-bola; Toxicity (EC50 [μg/ml]) of: / Hepta-bola; Toxicity (EC50 [μg/ml]) of: / Octa-bola; Toxicity (EC50 [μg/ml]) of: / Octa-C10; Toxicity (EC50 [μg/ml]) of: / Octa-C8; Toxicity (EC50 [μg/ml]) of: / Octa-C6

HEK293 = assay: In vitro toxicity for cell line; type: cell-based, human; details: for EC50: Homo sapiens
Text: as §1

[6] = test system: Acinetobacter baumannii ATCC 17978; assay: Broth microdilution MIC; type: cell-based
C. auris temp probe = assay: Broth microdilution MIC; type: cell-based, Candida auris; details: C. auris temp probe
[7] = test system: Klebsiella pneumoniae NCTC 13368; assay: Broth microdilution MIC; type: cell-based
C. albicans 3179 = assay: Broth microdilution MIC; type: cell-based, Candida albicans; details: C. albicans 3179
M. tuberculosis Bleupan = assay: microbe, parasite or virus in culture; type: cell-based, Mycobacterium tuberculosis
[8] = test system: Pseudomonas aeruginosa NCTC 13437; assay: Broth microdilution MIC; type: cell-based
M. smegmatis mc^2 155 = assay: Broth microdilution MIC (Middlebrook 7H9); type: cell-based, Mycobacterium smegmatis
C. parapsilosis 3209 = assay: Broth microdilution MIC; type: cell-based
C. tropicalis 8760 = assay: Broth microdilution MIC; type: cell-based; details: C. tropicalis 8760
[9] = test system: VS Enterococcus faecalis NCTC 775; assay: Broth microdilution MIC; type: cell-based
[10] = test system: pBR322 plasmid, wheat germ topoisomerase I; assay: DNA unwinding assay; type: biochemical; details: for DNA intercalation: relaxed pBR322 plasmid plus topoisomerase I (Fig. 2A); for relaxation of supercoiled plasmid through the action of topoisomerase I: supercoiled pBR322 plasmid, bolalipid present (Fig. 2B)
Description: A DNA unwinding assay kit (Inspiralis Limited, Norwich, UK) consists of wheat germ topoisomerase I assay buffer (50 mM Tris HCl [pH 7.9], 1 mM EDTA, 1 mM dithiothreitol [DTT], 20% [vol/vol] glycerol, 50 mM NaCl) dilution buffer (50 mM Tris HCl [pH 7.9], 1 mM EDTA, 1 mM DTT, 50% [vol/vol] glycerol, 500 mM NaCl), wheat germ topoisomerase I (5 U/μL), supercoiled plasmid pBR322 (1 μg/μL), and relaxed plasmid pBR322 (1 μg/μL). For the experiments, 2× DNA loading buffer containing 40% (wt/vol) sucrose, 100 mM Tris-HCl (pH 8), 1 mM EDTA, and 0.5 mg/mL bromophenol blue was prepared. The enzyme was diluted 1/5 with dilution buffer before being used in the assay. For the assay, 3 mM stock solutions in methanol of the compounds to be tested were prepared. An appropriate number of 1.5-mL Eppendorf tubes were filled with 25 μL of a mix consisting of assay buffer (15 μL of buffer per sample), supercoiled or relaxed pBR322 (0.5 μg/assay), and ultrapure water. In the first two tubes, 1 μL of methanol was added to test the effect of the solvent on both the plasmid and the enzyme. Subsequently, 1 μL of the test compounds was added to the remaining tubes, and the tubes briefly vortexed and incubated at room temperature for 5 min. After that, 2 μL of dilution buffer was added in the first tube, whereas 2 μL of enzyme diluted solution was added to the remaining tubes. The tubes were gently vortexed and incubated for 30 min at 37°C in a water bath. After this time, the reaction was stopped by adding 20 μL of water and 50 μL of water-saturated butanol to each tube. The tubes were vortexed and centrifuged for 1 min at 14,800 rpm. The lower aqueous layer of each tube was removed and transferred to a new tube containing 30 μL of chloroform-isoamyl alcohol (24/1) and 50 μL of loading buffer. The tubes were briefly vortexed and centrifuged for 1 min. Twenty microliters of the upper layer of each tube was loaded onto a 1% (wt/vol) agarose gel, and the gel was run at 80 V for approximately 4 h in Tris-acetate-EDTA buffer (40 mM Tris acetate and 1 mM EDTA). Subsequently, the gel was stained with ethidium bromide (1 μg/mL) for 15 min, briefly destained (5 to 10 min) in water, and visualized with a Multi-Doc Imaging M-26X UVP transilluminator.

[11] = test system: Escherichia coli NCTC 12923; assay: Broth microdilution MIC; type: cell-based
C. krusei 3876 = assay: Broth microdilution MIC; type: cell-based
[12] = test system: Gram-negative bacteria (avg); assay: Selectivity index (toxicity/potency); type: cell-based; details: ratio of average toxicity (HEK293 and HeLa) to average potency
Text: as §1, with “3 Selectivity indices” for “2 Toxicity”, “bolaamphiphiles” for “bolaamphiphiles for two cell lines^a”, “Selectivity of^a:” for “Toxicity (EC50 [μg/ml]) of:”

Fungi (avg) = assay: Selectivity index (toxicity/potency); type: cell-based, Candida spp.; details: ratio of average toxicity (HEK293 and HeLa) to average potency
Text: as §1, with “3 Selectivity indices” for “2 Toxicity”, “bolaamphiphiles” for “bolaamphiphiles for two cell lines^a”, “Selectivity of^a:” for “Toxicity (EC50 [μg/ml]) of:”

[13] = EMR Staphylococcus aureus 16 NCTC 13277
[14] = VR Enterococcus faecalis NCTC 12201
[15] = EMR Staphylococcus aureus 15 NCTC 13616
[16] = average ± standard error from 3 independent repeats
[17] = HEK293, average ± standard error from 3 independent repeats
[18] = NCTC13277, EMR Staphylococcus aureus 16 NCTC 13277, read-out: MIC
[19] = Candida albicans, read-out: MIC
[20] = NCTC12201, VR Enterococcus faecalis NCTC 12201, read-out: MIC
[21] = Acinetobacter baumannii AYE, read-out: MIC
[22] = NCTC13616, EMR Staphylococcus aureus 15 NCTC 13616, read-out: MIC
[23] = Lodderomyces parapsilosis, read-out: MIC
[24] = HEK293, average ± standard error from 3 independent repeats, read-out: Toxicity (EC50)
[25] = Candidozyma auris, read-out: MIC
[26] = Mycobacterium tuberculosis, read-out: MIC
[27] = Mycolicibacterium smegmatis, MC^2155, read-out: MIC
[28] = Candida tropicalis, read-out: MIC
[29] = Pichia kudriavzevii, read-out: MIC

Row | Structure (SMILES) | MIC [1, 13] [µg/mL] | MIC [7] [µg/mL] | MIC [8] [µg/mL] | DNA intercalation [10] | relaxation of supercoiled plasmid through the action of topoisomerase I [10] | Selectivity index [12] | MIC (C. albicans 3281; [19]) [µg/mL] | MIC (Klebsiella pneumoniae M6; read-out: MIC) [µg/mL] | Selectivity index (Fungi (avg)) | MIC ([5]; read-out: MIC) [µg/mL] | MIC (C. parapsilosis; [23]) [µg/mL] | MIC ([6]; ATCC17978, read-out: MIC) [µg/mL] | MIC (C. auris temp probe; [25]) [µg/mL] | MIC (C. albicans 3179; [19]) [µg/mL] | MIC (M. smegmatis mc^2 155; [27]) [µg/mL] | MIC (C. parapsilosis 3209; [23]) [µg/mL] | MIC (C. tropicalis 8760; [28]) [µg/mL] | MIC ([9]; NCTC775, read-out: MIC) [µg/mL] | MIC ([11]; NCTC12923, read-out: MIC) [µg/mL] | MIC (C. krusei 3876; [29]) [µg/mL] | further results
1 | Nc1c2c([n+](CCCCCCCCCCCC[n+]3c4c(c(N)c5ccccc53)CCCC4)c3ccccc13)CCCC2 [12-bis-THA Cl2, 12,12′-(Dodecane-1,12-diyl)-bis-(9-amino-1,2,3,4-tetrahydroacridinium) chloride] | 0.125 | 32 | 32 | intercalators | not observed | – | – | – | – | – | – | – | – | – | – | – | – | – | – | – | MIC (C. albicans 3281): 0.25 µg/mL; MIC (Klebsiella pneumoniae M6): 16 µg/mL; MIC [2, 14]: 1 µg/mL; MIC ([3]; Acinetobacter baumannii AYE): 16 µg/mL; MIC [4, 15]: 0.25 µg/mL; MIC [5]: 32 µg/mL; MIC (C. parapsilosis): 2 µg/mL; Toxicity (EC50) (HeLa; [16]): 7.1 ± 2.0 µg/mL; Toxicity (EC50) (HEK293; [17]): 5.5 ± 2.0 µg/mL; MIC [6]: 16 µg/mL; MIC (C. auris temp probe): 2 µg/mL; MIC (C. albicans 3179): 0.25 µg/mL; MIC (M. tuberculosis Bleupan): 0.87 µg/mL; MIC (M. smegmatis mc^2 155): 0.28 µg/mL; MIC (C. parapsilosis 3209): 1 µg/mL; MIC (C. tropicalis 8760): 0.25 µg/mL; MIC [9]: 2 µg/mL; MIC [11]: 4 µg/mL; MIC (C. krusei 3876): 0.5 µg/mL
2 | Cc1cc(N)c2ccccc2[n+]1CCCCCCCCCC[n+]1c(C)cc(N)c2ccccc21 [Dequalinium, dequalinium chloride, reference compound] | – | – | – | intercalators | not observed | 0.69 | 0.5 | > 32 | 26.8 | > 32 | 8 | 32 | 4 | 0.5 | 0.68 | 4 | 0.5 | 32 | 32 | 1 | MIC [1, 18]: 4 µg/mL; MIC [2, 20]: 16 µg/mL; MIC [3, 21]: 32 µg/mL; MIC [4, 22]: 8 µg/mL; EC50 (HeLa; [16]): 34.7 ± 13.9 µg/mL; EC50 (HEK293; [24]): 9.9 ± 3.3 µg/mL; MIC ([7]; NCTC13368, read-out: MIC): > 32 µg/mL; MIC (M. tuberculosis Bleupan; [26]): 3.51 µg/mL; MIC ([8]; NCTC13437, read-out: MIC): > 32 µg/mL
3 | Nc1c2c([n+](CCCCCCCCCCCC[n+]3c4c(c(N)c5ccccc53)CCCCCC4)c3ccccc13)CCCCCC2 [Octa-bola] | – | – | – | intercalation is reduced if not eliminated | not observed | 0.53 | 0.5 | 16 | 8.30 | 32 | 1 | 8 | 1 | 0.5 | 0.55 | 0.5 | 0.25 | 0.5 | 2 | 0.5 | MIC [1, 18]: 0.125 µg/mL; MIC [2, 20]: 1 µg/mL; MIC [3, 21]: 8 µg/mL; MIC [4, 22]: 0.125 µg/mL; EC50 (HeLa): 4.5 ± 0.7 µg/mL; EC50 (HEK293; HEK293, read-out: Toxicity (EC50)): 3.8 ± 0.3 µg/mL; MIC ([7]; NCTC13368, read-out: MIC): 32 µg/mL; MIC (M. tuberculosis Bleupan; [26]): 0.24 µg/mL; MIC ([8]; NCTC13437, read-out: MIC): 32 µg/mL
4 | Nc1c2c([n+](CCCCCCCCCCCC[n+]3c4c(c(N)c5ccccc53)CCC4)c3ccccc13)CCC2 [Penta-bola] | 0.5 | 32 | >32 | intercalators | not observed | – | – | – | – | – | – | – | – | – | – | – | – | – | – | – | MIC (C. albicans 3281): 0.25 µg/mL; MIC (Klebsiella pneumoniae M6): 32 µg/mL; MIC [2, 14]: 1 µg/mL; MIC ([3]; Acinetobacter baumannii AYE): 32 µg/mL; MIC [4, 15]: 0.5 µg/mL; MIC [5]: 32 µg/mL; MIC (C. parapsilosis): 1 µg/mL; Toxicity (EC50) (HeLa; [16]): 9.5 ± 1.7 µg/mL; Toxicity (EC50) (HEK293; [17]): 7.9 ± 1.2 µg/mL; MIC [6]: 16 µg/mL; MIC (C. auris temp probe): 2 µg/mL; MIC (C. albicans 3179): 0.25 µg/mL; MIC (M. tuberculosis Bleupan): 0.19 µg/mL; MIC (M. smegmatis mc^2 155): 0.10 µg/mL; MIC (C. parapsilosis 3209): 1 µg/mL; MIC (C. tropicalis 8760): 0.25 µg/mL; MIC [9]: 4 µg/mL; MIC [11]: 16 µg/mL; MIC (C. krusei 3876): 0.5 µg/mL
5 | Cc1c(N)c2ccccc2[n+](CCCCCCCCCCCC[n+]2c(C)c(C)c(N)c3ccccc32)c1C [Quino-bola] | – | 32 | > 32 | intercalators | not observed | 0.55 | 0.25 | 32 | 31.8 | > 32 | 2 | 16 | 2 | 0.25 | 0.49 | 0.5 to 2 | 0.25 | 4 | 8 to 16 | 1 | MIC ([1]; Staphylococcus aureus, NCTC13277): 1 µg/mL; MIC ([2]; Enterococcus faecalis, NCTC12201): 2 µg/mL; MIC ([3]; Acinetobacter baumannii): 32 µg/mL; MIC ([4]; Staphylococcus aureus, NCTC13616): 1 µg/mL; EC50 (HeLa; [16]): 13.9 ± 9.5 µg/mL; EC50 (HEK293; [24]): 13.6 ± 0.6 µg/mL
